Assay results as given in BindingDB's records for doi:10.1074/jbc.M111.292243 (University of Copenhagen, 2012).

How the values were obtained:
Assay in all cases: Radioligand Competition Assay
[1] = molecular target: Acetylcholine-binding protein (Lymnaea stagnalis, UniProt P58154)
[2] = molecular target: Neuronal acetylcholine receptor subunit alpha-4 (Rattus norvegicus, UniProt P09483)
[3] = molecular target: Neuronal acetylcholine receptor subunit alpha-7 (Rattus norvegicus, UniProt Q05941)
Sequence of Neuronal acetylcholine receptor subunit alpha-7 (Q05941 whole entry): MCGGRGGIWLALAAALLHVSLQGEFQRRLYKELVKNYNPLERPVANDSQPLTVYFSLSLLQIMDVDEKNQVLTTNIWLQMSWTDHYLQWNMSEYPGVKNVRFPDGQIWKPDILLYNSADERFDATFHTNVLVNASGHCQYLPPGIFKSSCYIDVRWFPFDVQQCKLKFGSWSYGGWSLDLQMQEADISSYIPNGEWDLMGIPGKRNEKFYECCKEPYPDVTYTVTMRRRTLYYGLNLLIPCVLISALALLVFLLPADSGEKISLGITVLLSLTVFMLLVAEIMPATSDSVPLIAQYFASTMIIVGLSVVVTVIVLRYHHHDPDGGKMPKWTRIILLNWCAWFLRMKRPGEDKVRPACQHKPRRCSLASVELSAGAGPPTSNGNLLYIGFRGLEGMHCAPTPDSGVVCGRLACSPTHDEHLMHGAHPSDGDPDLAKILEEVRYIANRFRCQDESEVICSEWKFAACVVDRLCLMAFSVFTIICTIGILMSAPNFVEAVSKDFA

Sequence of Acetylcholine-binding protein (P58154 whole entry): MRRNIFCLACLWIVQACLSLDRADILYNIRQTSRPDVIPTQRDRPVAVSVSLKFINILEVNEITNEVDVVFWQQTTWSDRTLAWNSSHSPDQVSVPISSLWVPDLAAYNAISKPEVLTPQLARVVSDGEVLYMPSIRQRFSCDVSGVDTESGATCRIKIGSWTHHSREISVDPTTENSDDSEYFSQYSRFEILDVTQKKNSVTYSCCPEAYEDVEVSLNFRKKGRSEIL
Sequence of Neuronal acetylcholine receptor subunit alpha-4 (P09483 whole entry): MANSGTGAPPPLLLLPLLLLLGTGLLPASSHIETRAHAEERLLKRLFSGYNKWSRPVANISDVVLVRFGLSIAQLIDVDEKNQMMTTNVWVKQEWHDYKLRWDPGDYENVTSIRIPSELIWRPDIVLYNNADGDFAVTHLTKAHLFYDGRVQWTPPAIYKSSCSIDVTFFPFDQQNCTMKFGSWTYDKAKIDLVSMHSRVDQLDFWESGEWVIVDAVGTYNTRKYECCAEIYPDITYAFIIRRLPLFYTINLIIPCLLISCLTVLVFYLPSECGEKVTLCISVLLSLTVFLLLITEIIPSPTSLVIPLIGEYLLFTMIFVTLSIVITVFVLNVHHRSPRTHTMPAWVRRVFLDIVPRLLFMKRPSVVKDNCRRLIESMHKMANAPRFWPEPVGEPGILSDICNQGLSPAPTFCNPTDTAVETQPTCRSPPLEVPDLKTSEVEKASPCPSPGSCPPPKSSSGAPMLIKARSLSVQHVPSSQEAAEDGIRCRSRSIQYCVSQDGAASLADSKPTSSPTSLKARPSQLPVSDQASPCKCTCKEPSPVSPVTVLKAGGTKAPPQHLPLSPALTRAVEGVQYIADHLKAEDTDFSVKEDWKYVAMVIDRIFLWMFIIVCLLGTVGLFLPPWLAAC

Row | Compound | Ki [1] [nM] | Ki [2] [nM] | Ki [3] [nM]
1 | Clc1ccc([C@H]2C[C@@H]3CC[C@H]2N3)cn1 | 0.097 | – | –
2 | CCOc1cncc(N2CCCNCC2)c1 [NS3573, 2] | 2.2 | 0.62 | 9970
3 | c1ccc(-c2cncc(N3CCCNCC3)c2)cc1 | – | 0.8 | > 10000
4 | CCOc1cc(N2CCCNCC2)cnc1Br | – | 0.25 | 847
5 | O=c1cccc2n1CC1CNCC2C1 (stereo not given) [CAS_485-35-8] | 8.2 | 0.95 | 295
6 | Brc1ccc(N2CCCNCC2)cn1 [NS3920, 4] | – | 0.32 | 190
7 | c1cncc(N2CCCNCC2)c1 | – | 0.72 | 136
